Reference: patent US20250144223A1, “PROTEIN DEGRADATION COMPOUND BASED ON NAMPT TARGET PROTEIN AND APPLICATION THEREOF” (GLUETACS THERAPEUTICS (SHANGHAI) CO., LTD., priority 2021, published 2025)

These compounds were tested on Jurkat (assay: CellTiter-Glo Luminescent Cell Viability Assay, half inhibitory concentration (IC50) on tumor cell proliferation). Conditions: Homo sapiens, Jurkat cells, 72 h treatment.
Format: cell-based
Experimental: The tumor cells used herein were cultured in a cell culture medium at 37° C. in an incubator with 5% CO2, where the cell culture medium was supplemented with 10% FBS, as well as penicillin at a final concentration of 100 U/mL and streptomycin at a final concentration of 100 μg/mL. Prior to experimentation, all cells used were identified as correct cells by STR cells, and were negative for mycoplasma through routine testing.
IC50 values of the compounds of the present disclosure (including the compounds in Table 1 and compounds of examples) were measured using the CellTiter-Glo® Luminescent Cell Viability Assay kit from Promega Corporation. Assay details are as follows: Cells were seeded in 100 μL RPMI1640 medium containing serum at a density of 20,000 cells/well. After 24 h, the inoculated cells were treated with the compounds of the present disclosure which were serially diluted. After the cells were treated with the compounds of the present disclosure for 72 h, the CellTiter-Glo® reagent was added to the culture medium for cell viability assessment according to the instructions provided with the kit. DMSO served as the negative control, and FK866 inhibitor was used as the positive control, both treated with the same protocol as the compounds of the present disclosure. The growth inhibition of the compounds of the present disclosure on cells was plotted by Prism Graphpad software, and the IC50 values of the compounds of the present disclosure were calculated therefrom.

Compared with `O=C(/C=C/c1cccnc1)NCCCCC1CCN(C(=O)c2ccc(N3CCN(CCCCCCCSc4cccc5c4CN(C4CCC(=O)NC4=O)C5=O)CC3)cc2)CC1` (centres unmarked) [SIAIS630134, (E)-N-(4-(1-(4-(4-(7-((2-(2,6-dioxopiperidin-3-yl)-1-oxoisoindolin-4-yl)thio)heptyl)piperazin-1-yl)benzoyl)piperidin-4-yl)butyl)-3-(pyridin-3-yl)acrylamide], `O=C(/C=C/c1cccnc1)NCCCCC1CCN(C(=O)c2ccc(N3CCN(CCCCCCCCSc4cccc5c4CN(C4CCC(=O)NC4=O)C5=O)CC3)cc2)CC1` (centres unmarked) [SIAIS630135, (E)-N-(4-(1-(4-(4-(8-((2-(2,6-dioxopiperidin-3-yl)-1-oxoisoindolin-4-yl)thio)octyl)piperazin-1-yl)benzoyl)piperidin-4-yl)butyl)-3-(pyridin-3-yl)acrylamide] is 1.8-fold lower in IC50: 7.28 nM for the first, 4.02 nM for the second.

`O=C(/C=C/c1cccnc1)NCCCCC1CCN(C(=O)c2ccc(N3CCN(CCCCCCCCCCCSc4cccc5c4CN(C4CCC(=O)NC4=O)C5=O)CC3)cc2)CC1` (centres unmarked) [SIAIS630136, (E)-N-(4-(1-(4-(4-(11-((2-(2,6-dioxopiperidin-3-yl)-1-oxoisoindolin-4-yl)thio)undecyl)piperazin-1-yl)benzoyl)piperidin-4-yl)butyl)-3-(pyridin-3-yl)acrylamide] and `O=C(/C=C/c1cccnc1)NCCCCC1CCN(C(=O)c2ccc(N3CCN(CCCCCCCCSc4cccc5c4C(=O)N(C4CCC(=O)NC4=O)C5=O)CC3)cc2)CC1` (centres unmarked) [SIAIS631073, (E)-N-(4-(1-(4-(4-(8-((2-(2,6-dioxopiperidin-3-yl)-1,3-dioxoisoindolin-4-yl)thio)octyl)piperazin-1-yl)benzoyl)piperidin-4-yl)butyl)-3-(pyridin-3-yl)acrylamide] are within 1.5-fold of each other in IC50: 64.5 nM for the first, 62.5 nM for the second.

First: Cc1ncsc1-c1ccc(CNC(=O)[C@@H]2C[C@@H](O)CN2C(=O)[C@@H](NC(=O)CCOCCOCCC(=O)N2CCN(c3ccc(C(=O)N4CCC(CCCCNC(=O)/C=C/c5cccnc5)CC4)cc3)CC2)C(C)(C)C)cc1 [SIAIS631011, (2S,4R)-1-((S)-3,3-dimethyl-2-(3-(2-(3-oxo-3-(4-(4-(4-(4-((E)-3-(pyridin-3-yl)acrylamido)butyl)piperidine-1-carbonyl)phenyl)piperazin-1-yl)propoxy)ethoxy)propanamido)butanoyl)-4-hydroxy-N-(4-(4-methylthiazol-5-yl)benzyl)pyrrolidine-2-carboxamide]
Second: O=C(/C=C/c1cccnc1)NCCCCC1CCN(C(=O)c2ccc(N3CCN(C(=O)CCOCCOCCNc4cccc5c4C(=O)N(C4CCC(=O)NC4=O)C5=O)CC3)cc2)CC1 (centres unmarked) [SIAIS631109, (E)-N-(4-(1-(4-(4-(3-(2-(2-((2-(2,6-dioxopiperidin-3-yl)-1,3-dioxoisoindolin-4-yl)amino)ethoxy)ethoxy)propanoyl)piperazin-1-yl)benzoyl)piperidin-4-yl)butyl)-3-(pyridin-3-yl)acrylamide]
The IC50 of the first is 2-fold higher: 140 nM for the first, 71.2 nM for the second.

`O=C(/C=C/c1cccnc1)NCCCCN1CCN(C(=O)c2ccc(N3CCN(CCCCCC#Cc4cccc5c4CN(C4CCC(=O)NC4=O)C5=O)CC3)cc2)CC1` (centres unmarked) [SIAIS631045, (E)-N-(4-(4-(4-(4-(7-(2-(2,6-dioxopiperidin-3-yl)-1-oxoisoindolin-4-yl)hept-6-yn-1-yl)piperazin-1-yl)benzoyl)piperazin-1-yl)butyl)-3-(pyridin-3-yl)acrylamide] and `O=C(/C=C/c1cccnc1)NCCCCC1CCN(C(=O)c2ccc(N3CCN(CCCCCC#Cc4cccc5c4C(=O)N(C4CCC(=O)NC4=O)C5=O)CC3)cc2)CC1` (centres unmarked) [SIAIS631108, (E)-N-(4-(1-(4-(4-(7-(2-(2,6-dioxopiperidin-3-yl)-1,3-dioxoisoindolin-4-yl)hept-6-yn-1-yl)piperazin-1-yl)benzoyl)piperidin-4-yl)butyl)-3-(pyridin-3-yl)acrylamide] are within 1.5-fold of each other in IC50: 80 nM for the first, 79.7 nM for the second.

`O=C(/C=C/c1cccnc1)NCCCCC1CCN(C(=O)c2ccc(N3CCN(CCSc4cccc5c4C(=O)N(C4CCC(=O)NC4=O)C5=O)CC3)cc2)CC1` (centres unmarked) [SIAIS631068, (E)-N-(4-(1-(4-(4-(2-((2-(2,6-dioxopiperidin-3-yl)-1,3-dioxoisoindolin-4-yl)thio)ethyl)piperazin-1-yl)benzoyl)piperidin-4-yl)butyl)-3-(pyridin-3-yl)acrylamide] and `O=C(/C=C/c1cccnc1)NCCCCC1CCN(C(=O)c2ccc(N3CCN(CCCSc4cccc5c4C(=O)N(C4CCC(=O)NC4=O)C5=O)CC3)cc2)CC1` (centres unmarked) [SIAIS631069, (E)-N-(4-(1-(4-(4-(3-((2-(2,6-dioxopiperidin-3-yl)-1,3-dioxoisoindolin-4-yl)thio)propyl)piperazin-1-yl)benzoyl)piperidin-4-yl)butyl)-3-(pyridin-3-yl)acrylamide] are within 1.5-fold of each other in IC50: 74.4 nM for the first, 71.2 nM for the second.

Going from `O=C(/C=C/c1cccnc1)NCCCCC1CCN(C(=O)c2ccc(N3CCN(CCCCSc4cccc5c4C(=O)N(C4CCC(=O)NC4=O)C5=O)CC3)cc2)CC1` (centres unmarked) [SIAIS631070, (E)-N-(4-(1-(4-(4-(4-((2-(2,6-dioxopiperidin-3-yl)-1,3-dioxoisoindolin-4-yl)thio)butyl)piperazin-1-yl)benzoyl)piperidin-4-yl)butyl)-3-(pyridin-3-yl)acrylamide] to `O=C(/C=C/c1cccnc1)NCCCCC1CCN(C(=O)c2ccc(N3CCN(CCCCCSc4cccc5c4C(=O)N(C4CCC(=O)NC4=O)C5=O)CC3)cc2)CC1` (centres unmarked) [SIAIS631071, (E)-N-(4-(1-(4-(4-(5-((2-(2,6-dioxopiperidin-3-yl)-1,3-dioxoisoindolin-4-yl)thio)pentyl)piperazin-1-yl)benzoyl)piperidin-4-yl)butyl)-3-(pyridin-3-yl)acrylamide], the IC50 rises from 62.9 nM to 635 nM (10-fold). The first is the more potent here.

`O=C(/C=C/c1cccnc1)NCCCCC1CCN(C(=O)c2ccc(N3CCN(CCCCCCSc4cccc5c4C(=O)N(C4CCC(=O)NC4=O)C5=O)CC3)cc2)CC1` (centres unmarked) [SIAIS631072, (E)-N-(4-(1-(4-(4-(6-((2-(2,6-dioxopiperidin-3-yl)-1,3-dioxoisoindolin-4-yl)thio)hexyl)piperazin-1-yl)benzoyl)piperidin-4-yl)butyl)-3-(pyridin-3-yl)acrylamide] and `O=C(/C=C/c1cccnc1)NCCCCC1CCN(C(=O)c2ccc(N3CCN(CCCCCCCSc4cccc5c4C(=O)N(C4CCC(=O)NC4=O)C5=O)CC3)cc2)CC1` (centres unmarked) [SIAIS631078, (E)-N-(4-(1-(4-(4-(7-((2-(2,6-dioxopiperidin-3-yl)-1,3-dioxoisoindolin-4-yl)thio)heptyl)piperazin-1-yl)benzoyl)piperidin-4-yl)butyl)-3-(pyridin-3-yl)acrylamide] are within 1.5-fold of each other in IC50: 63 nM for the first, 62.2 nM for the second.

Going from `O=C(/C=C/c1cccnc1)NCCCCC1CCN(C(=O)c2ccc(N3CCN(C(=O)CCOCCNc4cccc5c4C(=O)N(C4CCC(=O)NC4=O)C5=O)CC3)cc2)CC1` (centres unmarked) [SIAIS631079, (E)-N-(4-(1-(4-(4-(3-(2-((2-(2,6-dioxopiperidin-3-yl)-1,3-dioxoisoindolin-4-yl)amino)ethoxy)propanoyl)piperazin-1-yl)benzoyl)piperidin-4-yl)butyl)-3-(pyridin-3-yl)acrylamide] to `O=C(/C=C/c1cccnc1)NCCCCC1CCN(C(=O)c2ccc(N3CCN(C(=O)COCCSc4cccc5c4C(=O)N(C4CCC(=O)NC4=O)C5=O)CC3)cc2)CC1` (centres unmarked) [SIAIS631111, (E)-N-(4-(1-(4-(4-(2-(2-((2-(2,6-dioxopiperidin-3-yl)-1,3-dioxoisoindolin-4-yl)thio)ethoxy)acetyl)piperazin-1-yl)benzoyl)piperidin-4-yl)butyl)-3-(pyridin-3-yl)acrylamide], the IC50 rises from 7.32 nM to 64.3 nM (8.8-fold). The first is the more potent here.

`O=C(/C=C/c1cccnc1)NCCCCC1CCN(C(=O)c2ccc(N3CCN(C(=O)COCCOCCSc4cccc5c4C(=O)N(C4CCC(=O)NC4=O)C5=O)CC3)cc2)CC1` (centres unmarked) [SIAIS631112, (E)-N-(4-(1-(4-(4-(2-(2-(2-((2-(2,6-dioxopiperidin-3-yl)-1,3-dioxoisoindolin-4-yl)thio)ethoxy)ethoxy)acetyl)piperazin-1-yl)benzoyl)piperidin-4-yl)butyl)-3-(pyridin-3-yl)acrylamide] and `O=C(/C=C/c1cccnc1)NCCCCC1CCN(C(=O)c2ccc(N3CCN(C(=O)COCCOCCOCCSc4cccc5c4C(=O)N(C4CCC(=O)NC4=O)C5=O)CC3)cc2)CC1` (centres unmarked) [SIAIS631113, (E)-N-(4-(1-(4-(4-(2-(2-(2-(2-((2-(2,6-dioxopiperidin-3-yl)-1,3-dioxoisoindolin-4-yl)thio)ethoxy)ethoxy)ethoxy)acetyl)piperazin-1-yl)benzoyl)piperidin-4-yl)butyl)-3-(pyridin-3-yl)acrylamide] are within 1.5-fold of each other in IC50: 66.7 nM for the first, 68.1 nM for the second.

`O=C(/C=C/c1cccnc1)NCCCCC1CCN(C(=O)c2ccc(N3CCN(C(=O)COCCOCCOCCOCCSc4cccc5c4C(=O)N(C4CCC(=O)NC4=O)C5=O)CC3)cc2)CC1` (centres unmarked) [SIAIS631114, (E)-N-(4-(1-(4-(4-(14-((2-(2,6-dioxopiperidin-3-yl)-1,3-dioxoisoindolin-4-yl)thio)-3,6,9,12-tetraoxatetradecanoyl)piperazin-1-yl)benzoyl)piperidin-4-yl)butyl)-3-(pyridin-3-yl)acrylamide] and `O=C(/C=C/c1cccnc1)NCCCCC1CCN(C(=O)c2ccc(N3CCN(C(=O)COCCOCCOCCOCCOCCSc4cccc5c4C(=O)N(C4CCC(=O)NC4=O)C5=O)CC3)cc2)CC1` (centres unmarked) [SIAIS631115, (E)-N-(4-(1-(4-(4-(17-((2-(2,6-dioxopiperidin-3-yl)-1,3-dioxoisoindolin-4-yl)thio)-3,6,9,12,15-pentaoxaheptadecanoyl)piperazin-1-yl)benzoyl)piperidin-4-yl)butyl)-3-(pyridin-3-yl)acrylamide] are within 1.5-fold of each other in IC50: 66.5 nM for the first, 74.2 nM for the second.
